We go through two compounds from patent publication US20180264134A1, “A COMPOSITION OF GOLD NANOPARTICLES HAVING ANTIMICROBIAL PEPTIDES BOUND ON THEIR SURFACE FOR USE THE TREATMENT OF WOUND HEALING OR IN THE TREATMENT OF ISCHEMIC OR VASCULAR DISEASES OR IN THE TREATMENT OF SKIN DISORDERS” (priority 2015, published 2018).

In one assay the test system is platelets. As to the kind of experiment: Platelet activation (CD62P expression) in whole peripheral blood. In kind it is cell-based, human. As to conditions: positive control. As to the method: In an embodiment, to evaluate the hemocompatibility of Au NPs and LL37-Au NPs, the induction of platelet activation was tested. Platelet activation was measured by the flow cytometric quantification of CD62P (P-selectin) expression. CD62P is a component of the α-granule membrane of resting platelets that is expressed on the platelet surface membrane only after α-granule secretion, which occurs during platelet activation. Platelets are very sensitive to in vitro activation and aggregation, therefore, the less they are manipulated the better, for this reason the whole peripherical blood (diluted in tyrode buffer) were incubated with the NPs instead of isolating platelet rich plasma. […] As positive control it was used ADP, a platelet activator, which induced the activation of 40% of the platelets (FIG. 13). […] In contrast, HUVECs were more sensitive to soluble LL37 than HaCaT showing cytotoxic effect at a concentration of 10 μg/mL and 30 μg/mL, respectively. Furthermore, LL37-Au NPs have lower cytotoxic and impact on membrane potential than soluble peptide that for the same concentration of LL37 (up to 100 μg/mL). Differences in the cell membrane composition between HUVECs and HaCaT might account for the differences between endothelial and epithelial cells response on LL37 cytotoxicity as supported by the result of membrane potential analysis (FIG. 13d).

Assay [1] relates to clathrin-mediated endocytosis. As to the kind of experiment: FITC-labelled transferrin uptake (validation of dynasore). The assay is classed as cell-based, human. Particulars: 80 μM, 30 min pre-incubation, keratinocytes. As for the experimental part: In an embodiment the HaCaT keratinocyte cells were cultured on 24 well plates (1×10^6 cells/well) and inhibited by one of the following chemicals during 30 min before adding a suspension of Rhodamine-labelled NPs (15 μg/mL): dynasor (100 μM), cytochalasin D (100 μM), nocodazole (25 uM), filipin III (1 μM) and polyinosinic acid (100 μg/mL), 5-(N-ethyl-N-isopropyl)amiloride (EIPA), dextran sulfate. The inhibitor concentrations were based in values reported in literature and further validated by us to have no cytotoxic effect over the period of the assay (6 h), as confirmed by viability assay. The incubation of the cells with NPs for different times was performed in the presence of the inhibitor. As controls, HaCaT keratinocyte cells without NPs and cells incubated with NPs without inhibitor were used. At the end of each time point, cells were centrifuged at 1300 rpm, 20° C. for 5 min, washed 3 times with cold PBS and then resuspended in PBS containing 2.5% FBS (500 μL) for FACS analysis. A total of 10,000 events were obtained per measurement. To validate the inhibitory activity of dynasor it were performed uptake studies of FITC-labeled transferrin, known to selectively enter cells via clathrin-mediated endocytosis. […] Cells were then evaluated as before.

The structures appear in SMILES notation.

As to `Nc1ncnc2c1ncn2[C@@H]1O[C@H](COP(=O)(O)OP(=O)(O)O)[C@@H](O)[C@H]1O` [ADP], in the assay on platelets, the activated platelets is 40%.

Take `O=C(N/N=C/c1ccc(O)c(O)c1)c1cc2ccccc2cc1O` [Dynasore, dynasore]: the “internalisation of FITC-labelled transferrin” value in assay [1] is given as “inhibits the internalisation of transferrin”.
